Data reported in patent publication EP2402030A1, “Linear IgE peptide epitopes of celery allergen api 1” (Charité Universitätsmedizin Berlin, priority 2010, dated 2012).

System: human IgE antibodies
Assay: Human IgE antibody binding to SPOT-synthesized 12-meric Api g 1.0101 peptide arrays on N-CAPE cellulose membranes, probed with sera, HRP-labeled anti-human IgE, chemiluminescence
Conditions: for IgE binding in sera of healthy controls: sera of 17 healthy subjects; for IgE binding in sera of healthy controls / celery allergic individuals responding to the peptide (positive IgE antibody binding spot) / recognition by sera of celery allergic patients: diluted 1:5; for number of celery allergic patients whose sera IgE antibodies bind the sequence / celery allergic individuals responding to the peptide (positive IgE antibody binding spot) / recognition by sera of celery allergic patients: sera of 21 celery allergic patients; for celery allergic individuals responding to the peptide (positive IgE antibody binding spot): positive if SInorm above the membrane's cut off value
Excerpt: The protein sequence of the major allergen in celery Api g 1.0101 (UniprotKB/Swissprot entry P49372) was dissected into sets of overlapping peptides (pepscan). Subsequently, these sequences were synthesized as peptide arrays on cellulose membranes according to SPOT technology. A highly specific secondary anti-human IgE antibody with minimum cross-reactivity towards cellulose membrane-bound peptides was employed.
Synthetic arrays were probed with sera randomly chosen from a well described cohort of subjects, including 21 patients with a defined allergic reaction to celery and 17 healthy individuals. Captured human IgE antibodies were detected by a HRP-labeled secondary antibody and binding was visualized by chemiluminescence.
The optimal conditions for screening the sera of 21 celery allergic patients and 17 healthy controls were as follows: (i) replica of a 12-meric pepscan with a shift of three amino acids covering the Api g 1.0101 sequence synthesized on high-loaded N-CAPE membranes (640 nmol/cm2 - 760 nmol/cm2); (ii) prior to treatment with sera, membranes were blocked with the Sigma-Genosys blocking buffer for 2 h at room temperature; (iii) arrays were probed for 16 h at 4°C with diluted sera (1:5) for IgE antibody binding; (iv) the captured human IgE antibodies were detected with the HRP-labeled anti-human IgE antibody (A 9667, Sigma-Aldrich) and visualized by chemiluminescence; (v) spot signal intensities were measured on a LumiImager and processed with the LumiAnalyst software. To check the reproducibility of our screening procedure, three different peptide arrays were incubated and evaluated for each person (allergic and healthy).
Sera binding patterns could be reproduced in repeated incubation experiments. Although inter-membrane absolute spot signal intensities differed, the relative differences between spot signal intensities were nearly the same. This enabled comparison of spot signal intensities from different membranes by applying an additional normalization procedure. We defined an IgE antibody binding spot as positive if its normalized signal intensity (SInorm) was higher than the calculated cut off value of the appropriate membrane.
Human IgE antibody binding studies: The spotted peptide arrays were prewashed with ethanol (1 × 10 min), washed with Tris-buffered saline (TBS), pH 8.0 (3 × 10 min), and blocked for 2 h at room temperature with blocking buffer. The membranes were incubated with the patients' sera (dilution 1:5) in blocking buffer overnight at 4°C, washed with TBS, followed by a second incubation with anti-human IgE antibody (ε-chain specific) conjugated with horse radish peroxidase (HRP) (A 9667, Sigma-Aldrich, St. Louis, USA) in blocking buffer for 2 h at room temperature. To remove excess antibody the membrane was washed with TBS (3x10 min). Detection was performed with Uptilight HRP blot chemiluminescent substrate (Uptima, Interchim, Montiuçon Cedex, France) with an exposure time of 2 min. The signal intensities were recorded as Biomedical Light Units (BLU) by a Lumi Imager™ (Boehringer Mannheim GmbH, Mannheim, Germany) using the LumiAnalyst software.
Measurement of spot signal intensities: Analysis and measurement of spot signal intensities were executed with the LumiAnalyst software, version 3.1 (Boehringer Mannheim GmbH, Mannheim, Germany). The spot signal was calculated from a circular region around the spot center detected on the image. To guarantee uniform spot signal assessment, and reduce signal variations caused by the background, we choose the background correction method in the LumiAnalyst software. This method allows local background correction when calculating the BLU of each spot. The background values of each spot were determined from BLU values around the spot with a safety margin and normalized to the area of the spot. Comparing replicas of several membranes, incubated under identical conditions, we found signal intensity deviations of a factor of 11. […]

celery allergic individuals responding to the peptide (positive IgE antibody binding spot)	Sequence	IgE binding in sera of healthy controls	number of celery allergic patients whose sera IgE antibodies bind the sequence	other results
38%	IFQGFVIDVDTV [peptide 7, 12-meric peptide of Api g 1.0101]	not reacting with any sera IgE antibody from healthy subjects	at least six	–
29%	NHVVLVPTADGG [peptide 34, 12-meric peptide located in the C-terminal region of Api g 1.0101]	not reacting with any sera IgE antibody from healthy subjects	at least six	–

The remaining lines, values behind:

Sequence	celery allergic individuals responding to the peptide (positive IgE antibody binding spot)	IgE binding in sera of healthy controls	number of celery allergic patients whose sera IgE antibodies bind the sequence	other results
GDGGPGTLKIIT [compound 16, 12-meric peptide of Api g 1.0101]	38%	–	–	–
PTADGGSICKTT [compound 36, 12-meric peptide of Api g 1.0101]	43%	–	–	–
IITLPDGGPITT [compound 19, 12-meric peptide of Api g 1.0101]	29%	–	–	–
VLVPTADGGSIC [peptide 35, 12-meric peptide of Api g 1.0101]	100%	not reacting with any sera IgE antibody from healthy subjects	at least six	spot signal intensity (average spot signal intensity, Fig. 3): highest measured spot signal intensity; IgE binding in sera of healthy controls (listed as VLVPTADGGSIC): no binding; recognition by sera of celery allergic patients: recognized by the sera from all the celery allergic patients; recognition by sera of celery allergic patients (listed as VLVPTADGGSIC): recognized by all sera of celery allergic patients
GGPITTMTLRID [compound 21, 12-meric peptide of Api g 1.0101]	29%	–	–	–
